Columns and labels:
[1] = system: Primary rat oligodendrocyte progenitor cells; test: Oligodendrocyte toxicity assay (LDH release, protection against toxin-induced toxicity); format: cell-based; settings: compound pretreatment 1 hour, LDH after 24 hours; for Oligodendrocyte progenitor protection against Camptothecin: Camptothecin 10 μM; for Oligodendrocyte progenitor protection against SIN-1: SIN-1 10 mM
Experimental: Oligodendrocyte Toxicity Assay
Primary rat oligodendrocyte progenitor cells were obtained from the cerebra of 2-3 day old postnatal rats (Sprague Dawley). The meninges were removed and tissue was mechanically dissociated. Cells were plated on T75 flasks and fed with DMEM+10% FBS.
Enriched OLPs were collected by mechanical separation from the astrocytic monolayer and were expanded in serum free media (SFM) supplemented with the mitogens, PDGF-AA (10 ng/ml) and FGF-2 (10 ng/ml).
To generate mature oligodendrocytes, progenitor cells were switched to SFM supplemented with IGF-1 (10 ng/ml) 24 hours after plating and cells were grown under these conditions for 7 days prior to experimental assays.
Cells were plated in 96-well plates, 10,000 per well. Medium was changed to fresh medium and cells were pretreated with compounds for 1 hour. Toxins were added to give the following final concentrations:
After 24 hours, medium was removed and assayed for LDH activity using the Promega cytotox 96 kit (catalog #G1780). Results were calculated as percent protection against toxin-induced toxicity.

ER α = biological target: T1, ER α (Homo sapiens, UniProt P03372); test: Affinity for ER receptors (α); format: binding; settings: unit not given
T1 sequence (P03372 1-595): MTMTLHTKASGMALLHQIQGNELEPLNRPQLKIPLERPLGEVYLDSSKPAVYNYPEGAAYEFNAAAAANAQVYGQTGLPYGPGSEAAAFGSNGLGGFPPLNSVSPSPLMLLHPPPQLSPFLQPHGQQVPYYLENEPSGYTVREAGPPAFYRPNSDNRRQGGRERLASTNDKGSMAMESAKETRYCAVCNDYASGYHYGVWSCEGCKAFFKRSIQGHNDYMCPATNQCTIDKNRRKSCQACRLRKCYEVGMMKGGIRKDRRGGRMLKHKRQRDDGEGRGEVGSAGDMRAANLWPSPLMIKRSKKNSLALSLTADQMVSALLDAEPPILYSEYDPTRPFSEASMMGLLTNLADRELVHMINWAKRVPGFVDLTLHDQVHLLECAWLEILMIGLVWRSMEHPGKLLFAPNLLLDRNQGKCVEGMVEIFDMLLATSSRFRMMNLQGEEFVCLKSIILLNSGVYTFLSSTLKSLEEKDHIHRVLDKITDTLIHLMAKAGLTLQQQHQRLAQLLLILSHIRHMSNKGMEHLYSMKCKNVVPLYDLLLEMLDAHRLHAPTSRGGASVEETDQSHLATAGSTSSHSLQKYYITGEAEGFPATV

ER β = ER β (Homo sapiens, UniProt Q92731); test: Affinity for ER receptors (β); format: binding; settings: unit not given
Sequence of ER β (Q92731 whole entry): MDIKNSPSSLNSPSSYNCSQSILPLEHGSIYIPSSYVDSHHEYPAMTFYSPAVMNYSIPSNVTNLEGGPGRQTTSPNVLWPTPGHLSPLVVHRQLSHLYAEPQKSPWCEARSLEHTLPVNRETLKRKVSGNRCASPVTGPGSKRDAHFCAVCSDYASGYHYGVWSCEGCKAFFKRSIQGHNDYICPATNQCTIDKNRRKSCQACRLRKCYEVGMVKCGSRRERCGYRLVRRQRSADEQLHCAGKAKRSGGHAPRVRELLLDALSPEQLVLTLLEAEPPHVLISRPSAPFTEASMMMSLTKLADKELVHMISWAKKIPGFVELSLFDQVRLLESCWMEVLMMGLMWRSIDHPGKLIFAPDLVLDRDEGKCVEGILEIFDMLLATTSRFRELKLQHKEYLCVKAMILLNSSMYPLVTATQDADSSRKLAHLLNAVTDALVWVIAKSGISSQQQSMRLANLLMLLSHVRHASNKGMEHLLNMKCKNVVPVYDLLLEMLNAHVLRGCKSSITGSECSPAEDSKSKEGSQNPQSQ

SMILES | Oligodendrocyte progenitor protection against Camptothecin [1] | Oligodendrocyte progenitor protection against SIN-1 [1] | Affinity for ER receptors* α (ER α) | Affinity for ER receptors* β (ER β)
COc1ccc(-c2sc3cc(O)ccc3c2Oc2ccc(OCCN3CCCCC3)cc2)cc1 [Compound 10, Arzoxifen] | Very effective | Very effective | – | –
Oc1ccc(-c2ccc3cc(O)ccc3c2Cl)cc1 [Compound 4, 5-chloro-6-(4-hydroxyphenyl)-2-naphthalenol] | Effective | Effective | 35.4 | 3
C[C@@]12CCc3cc(O)ccc3[C@H]1CC[C@@]1(C)[C@H]2CC[C@@H]1O [Compound 11, Estrogen] | Effective | Effective | 1.17 | 6.1
Oc1ccc(-c2ccc3cc(O)ccc3c2)cc1 [Compound 7, 6-(4-Hydroxy-phenyl)-2-naphthalenol] | Effective | Effective | 408 | 14.7
